Source: PMC3836906 (Cancer chemotherapy and pharmacology, 2013)
Values joined by “and” are separate entries in the source; they are usually repeats but may differ in a detail not shown here. Equal values may be shown once. Read-outs that look alike come from different tables or passages of the source.

How the values were obtained:
[1] = system: mice; conditions: mouse, in vivo
[2] = mouse, in vivo
[3] = system: RBC ALDH; conditions: mouse, in vivo, ip, 300 mg/kg; cited from earlier work
[4] = system: liver ALDH; conditions: mouse, in vivo, ip, 300 mg/kg; cited from earlier work
[5] = system: ALDH1B1; conditions: cited from earlier work
[6] = system: human RXF-393 renal carcinoma cell xenografts; conditions: mouse, in vivo; cited from earlier work
[7] = in vivo
[8] = system: mice; conditions: mouse, in vivo; remark: listed apart in the source
[9] = system: human 786-0 renal cell tumors; conditions: mouse, in vivo; cited from earlier work
[10] = system: human ACHN renal cell tumors; conditions: mouse, in vivo; cited from earlier work
[11] = system: A498 human renal cell cancer xenografts; conditions: in vivo; cited from earlier work
[12] = system: cell cycle; conditions: cited from earlier work
[13] = system: renal carcinoma cells; conditions: cited from earlier work
[14] = in vivo; conditions: CD2F1, mouse, iv, 20 mg/kg
[15] = in vivo; conditions: CD2F1, mouse, iv, 20 mg/kg; remark: listed apart in the source

**Q.** Which results are given for `CCN(CC)C(=S)SSC(=S)N(CC)CC` [disulfiram, Tetraethylthiuram disulfide]?
**A.** Hepatic pathology [1]: mild hepatic lesions; Body weight loss [2]: approximately 12%; Reduction of ALDH activity in RBC compared to controls [3]: 81%; Reduction of ALDH activity in liver compared to controls [4]: 27%; Sensitivity of ALDH1B1 to inhibition [5]: insensitive to inhibition

**Q.** With `CS(=O)(=O)OCCCCOS(C)(=O)=O` [busulfan, reference compound] as the compound, how does the Anti-tumor activity [6] read?
**A.** no activity

**Q.** Which results are given for `Cc1cc(N(CCOS(C)(=O)=O)CCOS(C)(=O)=O)ccc1C=O` [BEN, 4-[bis[2-[(methylsulfonyl)-oxy]ethyl]amino]-2-methyl-benzaldehyde]?
**A.** Increase of BEN plasma exposure by disulfiram pretreatment ([7]; CD2F1, mouse): 368 fold; Time after administration at which analyte became undetectable in plasma ([7]; CD2F1, mouse): 15 min; Cl/F ([7]; CD2F1, mouse, iv, 20 mg/kg): 0.18 mL/min/kg; Tmax ([7]; CD2F1, mouse, iv, 20 mg/kg): 5 min; Vd/F ([7]; CD2F1, mouse, iv, 20 mg/kg): 120 L/kg; Day after dosing by which blood values returned to normal [8]: ≤ 14 days; Effect of disulfiram pretreatment on percentage lymphocytes nadir [8]: appeared to deepen; Hematocrits, white blood cells and percent lymphocytes following treatment [8]: decreased; Body weight loss [2]: approximately 12%; Cure rate [6]: > 70%; Anti-tumor activity [9]: significant activity; Anti-tumor activity [10]: significant activity; Effect on xenograft growth [11]: slowed the growth; Cell cycle effect [12]: S and G2/M cell cycle arrest; Activity in NCI 60 cell line screen [13]: specific activity; Tmax ([14]; in vivo): 5 min; CL renal [15]: 0.4 mL/min

**Q.** With `Cc1cc(N(CCO)CCO)ccc1C(=O)O` [BA-(OH)2, 4-[bis[2-hydroxy-ethyl]amino]-2-methyl-benzoic acid] as the compound, how does the Cl/F ([7]; mouse) read?
**A.** 1.90 mL/min/kg and 1.20 mL/min/kg

**Q.** And the Tmax ([7]; mouse)?
**A.** 10 min

**Q.** What about the Vd/F ([7]; mouse) of the same compound?
**A.** 83 L/kg and 60 L/kg

**Q.** What about the Tmax ([14]; plasma) of the same compound?
**A.** 10 min

**Q.** What about the half-life ([14]; plasma, Half-life, BEN 20 mg/kg iv alone) of the same compound?
**A.** 29 min
